Laboratory results as given in the supplement of paper PMC8617591.

Experiments:
[1] = tested on: Mycobacterium tuberculosis Erdman (autoluminescent); assay: total FIC50 (Loewe) at 50% inhibition, three-drug combination (log2); higher = more antagonistic
Protocol: (§1)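 DiaMOND equipotent three-drug combination dose responses (10 doses, 1.5- or 2-fold spacing, centred on IC90) against autoluminescent M. tuberculosis Erdman in 8 in vitro models. Read-out is OD600, or luminescence for the intracellular and dormancy models, normalised to untreated wells. Hill-fit Einf, AUC25 and GRinf are potency metrics; FIC50 and FIC90 are total Loewe fractional inhibitory concentrations as log2 (negative = synergy).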

[2] = tested on: Mycobacterium tuberculosis Erdman (autoluminescent); assay: total FIC90 (Loewe) at 90% inhibition, three-drug combination (log2); higher = more antagonistic
Protocol: as §1

[3] = tested on: Mycobacterium tuberculosis Erdman (autoluminescent); assay: Einf, fitted maximum growth inhibition of three-drug combination (fraction); higher = stronger maximal inhibition
Protocol: as §1

[4] = tested on: Mycobacterium tuberculosis Erdman (autoluminescent); assay: AUC25, normalised area under dose response up to IC25 (three-drug combination) (fraction (0-1)); higher = more potent at low dose
Protocol: as §1

[5] = tested on: Mycobacterium tuberculosis Erdman (autoluminescent); assay: GRinf, maximum normalised growth rate inhibition (three-drug combination) (unitless (-1 to 1)); higher = less effect (negative = killing)
Protocol: as §1

CC(=O)NC[C@H]1CN(c2ccc(N3CCOCC3)c(F)c2)C(=O)O1 [linezolid] + COc1c(N2C[C@@H]3CCCN[C@@H]3C2)c(F)cc2c(=O)c(C(=O)O)cn(C3CC3)c12 [moxifloxacin] + CO[C@H]1/C=C/O[C@@]2(C)Oc3c(C)c(O)c4c(O)c(c(/C=N/N5CCN(C)CC5)c(O)c4c3C2=O)NC(=O)/C(C)=C\C=C\[C@H](C)[C@H](O)[C@@H](C)[C@@H](O)[C@@H](C)[C@H](OC(C)=O)[C@@H]1C [rifampicin]
Settings	AUC25, [4]	Einf, [3]	GRinf, [5]	total FIC50, [1]	total FIC90, [2]
in vitro model: acidic pH 5.7, time point: constant (~7 days, model-specific)	0.0527	0.811	-0.0255	0.498	–
in vitro model: acidic pH 5.7, time point: terminal (~4-5 doublings, model-specific)	0.0717	0.984	-0.147	0.628	0.503
in vitro model: intracellular J774, time point: constant = terminal	–	0.919	-0.103	–	0.656

Settings	AUC25, [4]	Einf, [3]	GRinf, [5]	total FIC50, [1]	total FIC90, [2]
in vitro model: butyrate, time point: constant (~7 days, model-specific)	0.0848	0.857	0.177	0.137	–
in vitro model: butyrate, time point: terminal (~4-5 doublings, model-specific)	0.0684	0.929	0.128	0.112	0.0683
in vitro model: cholesterol 0.05 mM, time point: constant (~7 days, model-specific)	0.156	0.709	-0.119	0.272	–
in vitro model: cholesterol 0.05 mM, time point: terminal (~4-5 doublings, model-specific)	0.124	0.916	-0.285	4.84	-0.628
in vitro model: cholesterol-high 0.2 mM, time point: constant (~7 days, model-specific)	0.0752	0.889	-0.343	0.731	-0.284
in vitro model: cholesterol-high 0.2 mM, time point: terminal (~4-5 doublings, model-specific)	0.0984	1	-0.901	0.947	0.931
in vitro model: dormancy (butyrate + nitrate, low O2), time point: constant (~7 days, model-specific)	0.0613	0.873	0.239	1.14	0.815
in vitro model: dormancy (butyrate + nitrate, low O2), time point: terminal (~4-5 doublings, model-specific)	0.0476	0.971	-0.0219	0.897	0.88
in vitro model: standard 7H9 glycerol, time point: constant = terminal	0.0568	0.839	0.261	0.691	–
in vitro model: valerate, time point: constant (~7 days, model-specific)	0.0669	0.803	0.0279	0.393	–
in vitro model: valerate, time point: terminal (~4-5 doublings, model-specific)	0.0324	0.928	0.0628	0.609	0.105

CC(=O)NC[C@H]1CN(c2ccc(N3CCOCC3)c(F)c2)C(=O)O1 [linezolid] + COc1c(N2C[C@@H]3CCCN[C@@H]3C2)c(F)cc2c(=O)c(C(=O)O)cn(C3CC3)c12 [moxifloxacin] + NC(=O)c1cnccn1 [pyrazinamide]
Settings	AUC25, [4]	Einf, [3]	GRinf, [5]	total FIC50, [1]	total FIC90, [2]
in vitro model: acidic pH 5.7, time point: constant (~7 days, model-specific)	0.0593	0.734	-0.345	-0.252	–
in vitro model: acidic pH 5.7, time point: terminal (~4-5 doublings, model-specific)	0.0649	0.955	-0.38	1.52	-0.8
in vitro model: intracellular J774, time point: constant = terminal	–	0.939	-0.17	–	0.559

Settings	AUC25, [4]	Einf, [3]	GRinf, [5]	total FIC50, [1]	total FIC90, [2]
in vitro model: butyrate, time point: constant (~7 days, model-specific)	0.108	0.891	0.0582	0.00706	2.34
in vitro model: butyrate, time point: terminal (~4-5 doublings, model-specific)	0.0904	0.952	0.0307	0.0931	0.745
in vitro model: cholesterol 0.05 mM, time point: constant (~7 days, model-specific)	0.145	0.704	-0.234	–	–
in vitro model: cholesterol 0.05 mM, time point: terminal (~4-5 doublings, model-specific)	0.147	0.932	-0.426	0.356	–
in vitro model: cholesterol-high 0.2 mM, time point: constant (~7 days, model-specific)	0.106	0.923	-0.819	0.486	–
in vitro model: cholesterol-high 0.2 mM, time point: terminal (~4-5 doublings, model-specific)	0.115	1	-1	0.334	0.717
in vitro model: dormancy (butyrate + nitrate, low O2), time point: constant (~7 days, model-specific)	0.0721	0.855	0.269	0.651	0.461
in vitro model: dormancy (butyrate + nitrate, low O2), time point: terminal (~4-5 doublings, model-specific)	0.0321	0.973	-0.0525	0.786	0.354
in vitro model: standard 7H9 glycerol, time point: constant = terminal	0.0843	0.962	-0.271	–	–
in vitro model: valerate, time point: constant (~7 days, model-specific)	0.0976	0.87	0.12	-0.0785	–
in vitro model: valerate, time point: terminal (~4-5 doublings, model-specific)	0.0603	0.921	0.0594	0.266	0.56

CC(=O)NC[C@H]1CN(c2ccc(N3CCOCC3)c(F)c2)C(=O)O1 [linezolid] + COc1c(N2C[C@@H]3CCCN[C@@H]3C2)c(F)cc2c(=O)c(C(=O)O)cn(C3CC3)c12 [moxifloxacin] + O=[N+]([O-])c1cn2c(n1)OC[C@@H](OCc1ccc(OC(F)(F)F)cc1)C2 [pretomanid]
Settings	AUC25, [4]	Einf, [3]	GRinf, [5]	total FIC50, [1]	total FIC90, [2]
in vitro model: acidic pH 5.7, time point: constant (~7 days, model-specific)	0.113	0.883	-0.748	0.776	–
in vitro model: acidic pH 5.7, time point: terminal (~4-5 doublings, model-specific)	0.0579	0.945	-0.404	1.08	0.694
in vitro model: intracellular J774, time point: constant = terminal	–	0.954	-0.659	–	1.38

Settings	AUC25, [4]	Einf, [3]	GRinf, [5]	total FIC50, [1]	total FIC90, [2]
in vitro model: butyrate, time point: constant (~7 days, model-specific)	0.0971	0.916	0.0148	0.594	0.801
in vitro model: butyrate, time point: terminal (~4-5 doublings, model-specific)	0.0695	0.953	0.0166	0.499	0.736
in vitro model: cholesterol 0.05 mM, time point: constant (~7 days, model-specific)	0.14	0.692	-0.183	0.0017	–
in vitro model: cholesterol 0.05 mM, time point: terminal (~4-5 doublings, model-specific)	0.134	0.908	-0.206	0.534	0.307
in vitro model: cholesterol-high 0.2 mM, time point: constant (~7 days, model-specific)	0.121	0.923	-0.45	0.187	1.91
in vitro model: cholesterol-high 0.2 mM, time point: terminal (~4-5 doublings, model-specific)	0.117	0.989	-0.722	0.117	0.839
in vitro model: dormancy (butyrate + nitrate, low O2), time point: constant (~7 days, model-specific)	0.0437	0.879	0.219	0.988	0.456
in vitro model: dormancy (butyrate + nitrate, low O2), time point: terminal (~4-5 doublings, model-specific)	0.0489	0.979	-0.165	1.01	0.983
in vitro model: standard 7H9 glycerol, time point: constant = terminal	0.0706	0.962	-0.151	0.466	0.766
in vitro model: valerate, time point: constant (~7 days, model-specific)	0.138	0.861	-0.229	-0.643	–
in vitro model: valerate, time point: terminal (~4-5 doublings, model-specific)	0.0994	0.918	-0.0505	-0.495	0.791
